PubChem BioAssay AID1919015 (Molecular Pharmacology Branch, DTP, NCI, 2023)

Test system: OVCAR-5 complex spheroids with HUVEC/MSC, viability, % test/control
Assay: Anticancer human tumor OVCAR-5 cell line growth inhibition [AhR];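 further: spheroids exposed to compounds for 7 days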;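 on viability, T/C: 100% = DMSO vehicle control wells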
Conditions: for viability, T/C: stronger effect = lower value
Description: Multicellular complex tumor spheroid response to aryl hydrocarbon receptor antagonists in combination with a variety of drugs and investigational agents in selected tumor cell lines
The current study was undertaken to assess response to aryl hydrocarbon receptor antagonists in combination with standard-of-care drugs and investigational agents in solid tumor complex spheroid models. Complex spheroids include a stromal component modeled by human endothelial cells (HUVEC) and fibroblasts modeled by human mesenchymal stem cells (MSCs). The concentration ranges selected for each drug and investigational agent were based upon clinically achievable concentrations if the clinical Cmax of the agent was known.
Compounds. The drugs and investigational agents: BAY 2416964 (NSC825713), GNF351 (NSC835774), CH-223191 (NSC835775), CPI-455 (NSC825282), aza-TdCyd (NSC777586), decitabine (NSC127716), belinostat (NSC758774), entinostat (NSC756642), pevonedistat (NSC761192), tazemetostat (NSC777109), talazoparib (NSC765396), olaparib (NSC753686), selinexor (NSC780203), nedisertib (M3814, NSC802822), bortezomib (NSC756655), venetoclax (NSC766270), doxorubicin (NSC123127), elimusertib (BAY189344, NSC800525), ceralasertib (AZD6738, NSC777638), TAK-243 (NSC785004), alisertib (NSC759677), etoposide (NSC141540), topotecan (NSC609699), eribulin (NSC707389), gemcitabine (NSC613327), carboplatin (NSC241240), cisplatin (NSC119875), and SN-38 (NSC673596) were obtained from the National Cancer Institute (NCI) Developmental Therapeutics Program Chemical Repository (32). The FDA-approved anticancer drug set is available from the Developmental Therapeutics Program at https://dtp.cancer.gov/organization/dscb/obtaining/available plates.htm. […] The stock solutions were prepared in dimethyl sulfoxide (DMSO, Sigma-Aldrich, St. Louis, MO, cat. D2650), except for the platinum compounds which were prepared in saline (Quality Biological, Gaithersburg, MD, cat. 114-055-101), at 800-fold the tested concentration and stored at -70 degrees C prior to their use. All drugs and investigational agents were tested over a range starting from a high concentration at or near the clinical Cmax and decreasing in half-log increments. If the clinical Cmax for an agent had not been determined, the highest concentration tested was 10 microM (Table 1).
Cell Culture. All cells were maintained in an incubator at 37 degrees C and 5% CO2 with 95% humidity. The PDC lines were cultured according to standard operating procedures established by the NCI PDMR (https://pdmr.cancer.gov). Briefly, all PDCs were thawed and cultured in Matrigel-coated flasks prepared with a working solution of 1X Ham's F-12 nutrient mix, without supplementation (Invitrogen, Waltham, MA, cat. 11765054), 100 U/mL penicillin-streptomycin (Invitrogen, cat. 15140122), and 2.5% Matrigel (Corning Inc., Corning, NY, cat. 354248) for the first three passages. All PDCs were cultured in complete DMEM/F-12 media containing advanced DMEM/F-12 (Invitrogen, cat. 12634028), 4.9% defined fetal bovine serum, heat inactivated (HyClone Laboratories Inc., Logan, UT, cat. SH30070.03HI), 389 ng/mL hydrocortisone (Sigma-Aldrich, cat. H4001), 9.7 ng/mL human EGF recombinant protein (Invitrogen, cat. PHG0313), 23.4 microg/mL adenine (Sigma-Aldrich, cat. A2786), 97.3 U/mL penicillin-streptomycin (Invitrogen, cat. 15140122), 1.9 mM L-glutamine (Invitrogen, cat. 25030081), and 9.7 microM Y-27632 dihydrochloride (Tocris Bioscience, Bristol, United Kingdom, cat. 1254). The PDCs were cultured in complete DMEM/F12 media without 10 microM Y-27632 dihydrochloride for at least two passages prior to the screen. The established cell lines NCI-H1341 and […] were cultured in DMEM/F-12, HEPES (Invitrogen, cat. 11330032), 5% defined fetal bovine serum (HyClone Laboratories Inc., cat. SH30070.03), ITS premix universal culture supplement [insulin (5 microg/mL), transferrin (5 microg/mL), and selenious acid (5 ng/mL)] […]

[1] = curve of first compound, second compound 0.1 µM
[2] = curve of first compound, second compound 0.316 µM
[3] = curve of first compound, second compound 1 µM
[4] = curve of first compound, second compound 3.16 µM
[5] = curve of first compound, second compound 10 µM
[6] = second compound 0.1 µM, first compound 0.0316 µM
[7] = second compound 0.1 µM, first compound 0.1 µM
[8] = second compound 0.1 µM, first compound 0.316 µM
[9] = second compound 0.1 µM, first compound 1 µM
[10] = second compound 0.1 µM, first compound 3.16 µM
[11] = second compound 0.1 µM, first compound 10 µM
[12] = second compound 0.316 µM, first compound 0.0316 µM
[13] = second compound 0.316 µM, first compound 0.1 µM
[14] = second compound 0.316 µM, first compound 0.316 µM
[15] = second compound 0.316 µM, first compound 1 µM
[16] = second compound 0.316 µM, first compound 3.16 µM
[17] = second compound 0.316 µM, first compound 10 µM
[18] = second compound 1 µM, first compound 0.0316 µM
[19] = second compound 1 µM, first compound 0.1 µM
[20] = second compound 1 µM, first compound 0.316 µM
[21] = second compound 1 µM, first compound 1 µM
[22] = second compound 1 µM, first compound 3.16 µM
[23] = second compound 1 µM, first compound 10 µM
[24] = second compound 3.16 µM, first compound 0.0316 µM
[25] = second compound 3.16 µM, first compound 0.1 µM
[26] = second compound 3.16 µM, first compound 0.316 µM
[27] = second compound 3.16 µM, first compound 1 µM
[28] = second compound 3.16 µM, first compound 3.16 µM
[29] = second compound 3.16 µM, first compound 10 µM
[30] = second compound 10 µM, first compound 0.0316 µM
[31] = second compound 10 µM, first compound 0.1 µM
[32] = second compound 10 µM, first compound 0.316 µM
[33] = second compound 10 µM, first compound 1 µM
[34] = second compound 10 µM, first compound 3.16 µM
[35] = second compound 10 µM, first compound 10 µM

For Cc1ccccc1N=Nc1ccc(NC(=O)c2ccnn2C)c(C)c1, the viability, T/C (compound 0.1 µM) was 103% [middle of 20 runs], the viability, T/C (compound 0.316 µM) was 108% [middle of 20 runs] and the viability, T/C (compound 1 µM) was 110% [middle of 20 runs]. For the same molecule, the viability, T/C (compound 3.16 µM) was 113% [middle of 20 runs], the viability, T/C (compound 10 µM) was 105% [middle of 20 runs] and the IC50 (compound alone, run of 08/22/2022) was over 10000 nM.
COc1cc(C2c3cc4c(cc3C(OC3OC5COC(C)OC5C(O)C3O)C3COC(=O)C23)OCO4)cc(OC)c1O (stereo unspecified) + CC(CO)NC(=O)c1cc(-c2ccc(Cl)cc2)nn(-c2cnn(C)c2)c1=O was tested, and the IC50 [1] was 3960 nM, the IC50 [2] was 3880 nM and the IC50 [3] was 5440 nM. For the same molecule, the IC50 [4] was 3920 nM, the IC50 [5] was 3100 nM and the viability, T/C [6] was 106%. It also gave a viability, T/C [7] of 106%, a viability, T/C [8] of 100% and a viability, T/C [9] of 82.8%. It also gave a viability, T/C [10] of 52.7%, a viability, T/C [11] of 38.1% and a viability, T/C [12] of 105%. The viability, T/C [13] was 109%, the viability, T/C [14] was 101% and the viability, T/C [15] was 86%. The viability, T/C [16] was 52.7%, the viability, T/C [17] was 36.6% and the viability, T/C [18] was 115%. It also gave a viability, T/C [19] of 112%, a viability, T/C [20] of 107% and a viability, T/C [21] of 84.9%. The viability, T/C [22] was 59.2%, the viability, T/C [23] was 40.3% and the viability, T/C [24] was 98.9%. For the same molecule, the viability, T/C [25] was 102%, the viability, T/C [26] was 98% and the viability, T/C [27] was 71.4%. For the same molecule, the viability, T/C [28] was 56.2%, the viability, T/C [29] was 37.4% and the viability, T/C [30] was 96.1%. The viability, T/C [31] was 97.1%, the viability, T/C [32] was 82.6% and the viability, T/C [33] was 63.5%. For the same molecule, the viability, T/C [34] was 52.7% and the viability, T/C [35] was 40.1%.
For COc1cccc2c1C(=O)c1c(O)c3c(c(O)c1C2=O)CC(O)(C(=O)CO)CC3OC1CC(N)C(O)C(C)O1 (stereo unspecified) + CC(CO)NC(=O)c1cc(-c2ccc(Cl)cc2)nn(-c2cnn(C)c2)c1=O, the IC50 [1] was 267 nM, the IC50 [2] was 285 nM and the IC50 [3] was 347 nM. The IC50 [4] was 351 nM, the IC50 [5] was 326 nM and the viability, T/C [6] was 79.8%. It also gave a viability, T/C [7] of 62.8%, a viability, T/C [8] of 50% and a viability, T/C [9] of 23.5%. It also gave a viability, T/C [10] of 3.18%, a viability, T/C [11] of 0.94% and a viability, T/C [12] of 80%. For the same molecule, the viability, T/C [13] was 63.9%, the viability, T/C [14] was 50.9% and the viability, T/C [15] was 23.3%. For the same molecule, the viability, T/C [16] was 2.8%, the viability, T/C [17] was 0.91% and the viability, T/C [18] was 82.5%. For the same molecule, the viability, T/C [19] was 71.5%, the viability, T/C [20] was 53.1% and the viability, T/C [21] was 23.8%. For the same molecule, the viability, T/C [22] was 2.66%, the viability, T/C [23] was 0.86% and the viability, T/C [24] was 77%. For the same molecule, the viability, T/C [25] was 70.1%, the viability, T/C [26] was 52.7% and the viability, T/C [27] was 22.9%. The viability, T/C [28] was 1.63%, the viability, T/C [29] was 1.01% and the viability, T/C [30] was 72.7%. The viability, T/C [31] was 76.2%, the viability, T/C [32] was 49.5% and the viability, T/C [33] was 15%. The viability, T/C [34] was 0.79% and the viability, T/C [35] was 1.12%.
Nc1ncn(C2CC(O)C(CO)O2)c(=O)n1 (stereo unspecified) + CC(CO)NC(=O)c1cc(-c2ccc(Cl)cc2)nn(-c2cnn(C)c2)c1=O showed an IC50 [1] of over 1000 nM, an IC50 [2] of over 1000 nM and an IC50 [3] of over 1000 nM. It also gave an IC50 [4] of over 1000 nM, an IC50 [5] of over 1000 nM and a viability, T/C (second compound 0.1 µM, first compound 0.00316 µM) of 107%. For the same molecule, the viability, T/C (second compound 0.1 µM, first compound 0.01 µM) was 106%, the viability, T/C [6] was 98% and the viability, T/C [7] was 88.5%. It also gave a viability, T/C [8] of 72.6%, a viability, T/C [9] of 62.4% and a viability, T/C (second compound 0.316 µM, first compound 0.00316 µM) of 107%. For the same molecule, the viability, T/C (second compound 0.316 µM, first compound 0.01 µM) was 107%, the viability, T/C [12] was 99% and the viability, T/C [13] was 83.2%. For the same molecule, the viability, T/C [14] was 70.8%, the viability, T/C [15] was 62% and the viability, T/C (second compound 1 µM, first compound 0.00316 µM) was 116%. For the same molecule, the viability, T/C (second compound 1 µM, first compound 0.01 µM) was 114%, the viability, T/C [18] was 109% and the viability, T/C [19] was 91.6%. For the same molecule, the viability, T/C [20] was 71.3%, the viability, T/C [21] was 66.4% and the viability, T/C (second compound 3.16 µM, first compound 0.00316 µM) was 105%. For the same molecule, the viability, T/C (second compound 3.16 µM, first compound 0.01 µM) was 99.4%, the viability, T/C [24] was 97.9% and the viability, T/C [25] was 83.7%. The viability, T/C [26] was 70.6%, the viability, T/C [27] was 59.2% and the viability, T/C (second compound 10 µM, first compound 0.00316 µM) was 97.6%. The viability, T/C (second compound 10 µM, first compound 0.01 µM) was 99.9%, the viability, T/C [30] was 97.4% and the viability, T/C [31] was 88.4%. The viability, T/C [32] was 72.9% and the viability, T/C [33] was 64.2%.
